Measured values from US20090069300A1, “ISOQUINOLINYL AND ISOINDOLINYL DERIVATIVES AS HISTAMINE-3 ANTAGONISTS” (Wyeth, priority 2007, published 2009).
Where a name gives a salt, the structure may show the parent alone.

O=C(c1ccc(-c2ccc3c(c2)CCN(CCN2CCCC2)C3=O)cc1)N1CCC1 (as salt: hydrochloride) [Example 64, 6-[4-(azetidin-1-ylcarbonyl)phenyl]-2-(2-pyrrolidin-1-ylethyl)-3,4-dihydroisoquinolin-1(2H)-one]
melting point: 229 to 230 °C

C[C@@H]1CCCN1CCN1CCc2cc(-c3ccc4c(c3)CCNC4=O)ccc2C1=O (as salt: hydrochloride) [Example 157, (R)-2-(2-(2-methylpyrrolidin-1-yl)ethyl)-3,3′,4,4′-tetrahydro-6,6′-biisoquinoline-1,1′(2H,2′H-dione hydrochloride]
melting point: 272 to 273.5 °C

C[C@@H]1CCCN1CCN1CCc2cc(Oc3ccc(C#N)cc3)ccc2C1=O (as salt: hydrochloride) [Example 49, 4-[(2-{2-[(2R)-2-methylpyrrolidin-1-yl]ethyl}-1-oxo-1,2,3,4-tetrahydroisoquinolin-6-yl)oxy]benzonitrile]
melting point: 254 to 255 °C

N#Cc1cccc(-c2ccc3c(c2)CCN(CCCN2CCCC2)C3=O)c1 (as salt: hydrochloride) [Example 33, 3-[1-oxo-2-(3-pyrrolidin-1-ylpropyl)-1,2,3,4-tetrahydroisoquinolin-6-yl]benzonitrile]
melting point: 175 to 176 °C

C[C@@H]1CCCN1CCN1Cc2ccc(-c3ccc(F)cc3)cc2C1 (as salt: hydrochloride)
melting point: 250 to 251 °C

C[C@@H]1CCCN1CCN1CCc2cc(-c3ccc(C(=O)NC4CCC4)cc3)ccc2C1=O (as salt: hydrochloride) [Example 74, N-cyclobutyl-4-(2-{2-[(2R)-2-methylpyrrolidin-1-yl]ethyl}-1-oxo-1,2,3,4-tetrahydroisoquinolin-6-yl)benzamide]
melting point: 210 to 211 °C

C[C@@H]1CCCN1CCN1CCc2cc(C(=O)NC3CCC3)ccc2C1=O (as salt: hydrochloride) [Example 145, N-cyclobutyl-2-{2-[(2R)-2-methylpyrrolidin-1-yl]ethyl}-1-oxo-1,2,3,4-tetrahydroisoquinoline-6-carboxamide]
melting point: 214 to 215 °C

N#Cc1ccc2c(ccn2-c2ccc3c(c2)CCN(CCN2CCCC2)C3=O)c1 (as salt: hydrochloride) [Example 35, 1-[1-oxo-2-(2-pyrrolidin-1-ylethyl)-1,2,3,4-tetrahydroisoquinolin-6-yl]-1H-indole-5-carbonitrile Hydrochloride]
melting point: 215 to 217 °C

O=C(NCC1CC1)c1ccc(-c2ccc3c(c2)CCN(CCN2CCCC2)C3=O)cc1 (as salt: hydrochloride) [Example 60, N-(cyclopropylmethyl)-4-[1-oxo-2-(2-pyrrolidin-1-ylethyl)-1,2,3,4-tetrahydroiso-quinolin-6-yl]benzamide]
melting point: 216 to 218 °C

C[C@H]1CCCN1CCN1CCc2cc(-c3ccc(F)cc3)ccc2C1=O (as salt: hydrochloride) [Example 39, 6-(4-fluorophenyl)-2-{2-[(2S)-2-methylpyrrolidin-1-yl]ethyl}-3,4-dihydroiso-quinolin-1(2H)-one hydrochloride]
melting point: 244 to 247 °C

c1ccc(-c2ccc3c(c2)CCN(CCN2CCCC2)C3)cc1 [Example 178]
melting point: 268 to 270 °C

C[C@@H]1CCCN1CCN1CCc2ccc(-c3ccc(C(=O)N4CCCC4)cc3)cc2C1=O (as salt: hydrochloride) [Example 86, 2-{2-[(2R)-2-methylpyrrolidin-1-yl]ethyl}-7-[4-(pyrrolidin-1-ylcarbonyl)phenyl]-3,4-dihydroisoquinolin-1(2H)-one]
melting point: 214 to 215 °C

O=C(NCCOc1ccccc1)c1ccc(-c2ccc3c(c2)CCN(CCN2CCCC2)C3=O)cc1 (as salt: hydrochloride) [Example 71, 4-[1-oxo-2-(2-pyrrolidin-1-ylethyl)-1,2,3,4-tetrahydroisoquinolin-6-yl]-N-(2-phenoxyethyl)-benzamide]
melting point: 123 to 130 °C

O=C1c2ccc(-n3cccn3)cc2CCN1CCN1CCCC1 (as salt: hydrochloride) [Example 37, 6-(1H-pyrazol-1-yl)-2-(2-(pyrrolidin-1-yl)ethyl)-3,4-dihydroisoquinolin-1(2H)-one hydrochloride]
melting point: 174 to 175 °C

CNC(=O)c1ccc(-c2ccc3c(c2)CCN(CCN2CCCC2)C3)cc1 (as salt: hydrochloride) [Example 181, N-methyl-4-[2-(2-pyrrolidin-1-ylethyl)-1,2,3,4-tetrahydroisoquinolin-6-yl]benzamide]
melting point: 280 to 281 °C

N#Cc1ccc(-c2ccc3c(c2)CCN(CCN2CCCC2)C3=O)cc1 (as salt: hydrochloride) [Example 19, 4-[1-oxo-2-(2-pyrrolidin-1-ylethyl)-1,2,3,4-tetrahydroisoquinolin-6-yl]benzonitrile]
melting point: 249 to 251 °C

O=C(NCc1ccco1)c1ccc(-c2ccc3c(c2)CCN(CCN2CCCC2)C3=O)cc1 (as salt: hydrochloride) [Example 125, N-(2-furylmethyl)-4-[1-oxo-2-(2-pyrrolidin-1-ylethyl)-1,2,3,4-tetrahydroisoquinolin-6-yl]benzamide]
melting point: 211 to 213 °C

O=C(c1ccc(-c2ccc3c(c2)CCN(CCN2CCCC2)C3)cc1)N1CCOCC1 (as salt: hydrochloride) [Example 186, 6-[4-(morpholin-4-ylcarbonyl)phenyl]-2-(2-pyrrolidin-1-ylethyl)-1,2,3,4-tetrahydroisoquinoline]
melting point: 260 to 261 °C

C[C@@H]1CCCN1CCN1CCc2cc(C(=O)N3CCCCCC3)ccc2C1=O (as salt: hydrochloride) [Example 144, 6-(azepan-1-ylcarbonyl)-2-{2-[(2R)-2-methylpyrrolidin-1-yl]ethyl}-3,4-dihydroisoquinolin-1(2H)-one]
melting point: 192 to 193 °C

O=C1c2ccc(N3CCCCC3)cc2CCN1CCN1CCCCC1 (as salt: hydrochloride) [Example 163, 6-(piperidin-1-yl)-2-(2-(piperidin-1-yl)ethyl)-3,4-dihydroisoquinolin-1(2H)-one]
melting point: 245 to 246 °C

O=C(NC1CC1)c1ccc(-c2ccc3c(c2)CCN(CCN2CCCC2)C3=O)cc1 (as salt: hydrochloride) [Example 57, N-cyclopropyl-4-[1-oxo-2-(2-pyrrolidin-1-ylethyl)-1,2,3,4-tetrahydroisoquinolin-6-yl]benzamide]
melting point: 222 to 224 °C

C[C@@H]1CCCN1CCN1CCc2cc(N3CCCCC3)ccc2C1=O (as salt: hydrochloride) [Example 161, 2-{2-[(2R)-2-methylpyrrolidin-1-yl]ethyl}-6-piperidin-1-yl-3,4-dihydroisoquinolin-1(2H)-one]
melting point: > 225 °C

O=C1c2ccc(-c3ccc(C(F)(F)F)cc3)cc2CCN1CCN1CCCC1 (as salt: hydrochloride) [Example 22, 2-(2-pyrrolidin-1-ylethyl)-6-[4-(trifluoromethyl)phenyl]-3,4-dihydroisoquinolin-1(2H)-one]
melting point: 243 to 244 °C

C[C@@H]1CCCN1CCN1CCc2cc(-c3ccc(C(=O)NCC4CC4)cc3)ccc2C1=O (as salt: hydrochloride) [Example 73, N-(cyclopropylmethyl)-4-(2-{2-[(2R)-2-methylpyrrolidin-1-yl]ethyl}-1-oxo-1,2,3,4-tetrahydroisoquinolin-6-yl)benzamide]
melting point: 188 to 190 °C

O=C(NCCCl)c1ccc(-c2ccc3c(c2)CCN(CCN2CCCC2)C3=O)cc1 (as salt: hydrochloride) [Example 123, N-(2-chloroethyl)-4-[1-oxo-2-(2-pyrrolidin-1-ylethyl)-1,2,3,4-tetrahydroisoquinolin-6-yl]benzamide]
melting point: 236 to 237 °C

CCNC(=O)c1ccc(-c2ccc3c(c2)CCN(CCN2CCCC2)C3=O)c(F)c1 (as salt: hydrochloride) [Example 140, N-ethyl-3-fluoro-4-[1-oxo-2-(2-pyrrolidin-1-ylethyl)-1,2,3,4-tetrahydroisoquinolin-6-yl]benzamide]
melting point: 209 to 210 °C

C[C@@H]1CCCN1C(=O)c1ccc(-c2ccc3c(c2)CCN(CCN2CCCC2)C3=O)cc1 (as salt: hydrochloride) [Example 82, 6-(4-{[(2R)-2-methylpyrrolidin-1-yl]carbonyl}phenyl)-2-(2-pyrrolidin-1-ylethyl)-3,4-dihydroisoquinolin-1(2H)-one]
melting point: 170 to 171 °C

CNC(=O)c1ccc(-c2ccc3c(c2)CCN(CCN2CCC[C@H]2C)C3=O)cc1 (as salt: hydrochloride) [Example 78, N-methyl-4-(2-{2-[(2R)-2-methylpyrrolidin-1-yl]ethyl}-1-oxo-1,2,3,4-tetrahydroisoquinolin-6-yl)benzamide]
melting point: 258 to 260 °C

O=C(c1ccc(-c2ccc3c(c2)CCN(CCN2CCCC2)C3=O)c(F)c1)N1CCCC1 (as salt: hydrochloride) [Example 138, 6-[2-fluoro-4-(pyrrolidin-1-ylcarbonyl)phenyl]-2-(2-pyrrolidin-1-ylethyl)-3,4-dihydroisoquinolin-1(2H)-one]
melting point: 225 to 226 °C

N#Cc1ccc(-c2ccc3c(c2)CCN(CCCN2CCCCC2)C3=O)cc1 (as salt: hydrochloride) [Example 45, 4-[1-oxo-2-(3-piperidin-1-ylpropyl)-1,2,3,4-tetrahydroisoquinolin-6-yl]benzonitrile hydrochloride]
melting point: 249 to 250 °C

O=C(NCCF)c1ccc(-c2ccc3c(c2)CCN(CCN2CCCC2)C3=O)cc1 (as salt: hydrochloride) [Example 68, N-(2-fluoroethyl)-4-[1-oxo-2-(2-pyrrolidin-1-ylethyl)-1,2,3,4-tetrahydroisoquinolin-6-yl]benzamide]
melting point: 215 to 216 °C

COC(=O)c1ccc(-c2ccc3c(c2)CCN(CCN2CCCC2)C3=O)cc1 (as salt: hydrochloride)
melting point: 118 to 120 °C

O=C(c1ccc(-c2ccc3c(c2)CCN(CCN2CCCC2)C3=O)cc1)N1CCCC1 (as salt: hydrochloride) [Example 54, 6-[4-(pyrrolidin-1-ylcarbonyl)phenyl]-2-(2-pyrrolidin-1-ylethyl)-3,4-dihydroisoquinolin-1(2H)-one hydrochloride]
melting point: 245 to 248 °C
